# According to US20100137240A1, “USE OF NUCLEOSIDE DERIVATIVES AS ANTI-KOI HERPES VIRUS IN FISH” (Katholieke Universiteit Leuven, priority 2007, published 2010):
# Read-outs that look alike come from different tables or passages of the source.
# Legend:
# koi carps [1] = test: In vivo koi carps toxicity experiment, intramuscular injection; parameters: species or system koi carps (Cyprinus carpio koi); details: for Microscopic lesions: liver and kidney explants
# Description: An additional experiment was performed as following: Naive adult koi carps were kept in 60-liter tanks with filtrated water maintained at 23° C. […] (5 koi per group) were treated for 10 consecutive days, by intramuscular injection of 20 mg/kg PMEDAP ((“PMEDAP 20”) or 50 mg/kg PMEDAP (“PMEDAP 50”)) dissolved in 0.1 ml of DMEM. Two other groups (5 koi per group), used as negative controls, were injected with 0.1 ml of DMEM. After 10 days, all fish were examined and weighed. Three fishes of each group were euthanized. Liver and kidney explants were treated for anatomopathology analysis.
# Koi Herpes virus (KHV) [2] = test: Pulse chase treatment with PMEDAP on KHV growth in vitro; assay type: cell-based, Koi herpesvirus (KHV); details: 50 μg/ml PMEDAP for only the first 24 hours post infection, CCB cells, observed 5 days post-infection
# Description: PMEDAP was dissolved in DMSO at a concentration of 20 mg/ml then filtrated through a 0.45 μm filter. CCB cells were grown in 24-well culture plates in MEM containing 4.5 g/l glucose and 10% FCS. Cells were inoculated with 200 PFU of KHV in 0.2 ml of serum free DMEM. After 2 hours incubation, cells were overlaid with DMEM (4.5 g/l glucose, 10% FCS) containing 50 μg/ml of PMEDAP. Mock-infected cells and untreated infected cells (ND) were included as negative controls. At successive intervals pi, cells were washed twice with PBS then overlaid with complete DMEM. Five days pi, viral plaques were observed by a crystal violet assay.
# koi carps [3] = test: In vivo koi carps toxicity experiment, intraperitoneal injection; parameters: species or system koi carps (Cyprinus carpio koi); details: 50 mg/kg intraperitoneal, 10 consecutive days
# Description: Naïve adult koi carps were kept in 150-liter tanks with filtrated water maintained at 23° C. One group (n=12) was treated for 10 consecutive days, by intraperitoneal injection of PMEDAP (50 mg/kg) dissolved in 0.2 ml of DMEM. The other group (n=12), used as negative control, was injected with 0.2 ml DMEM. After 10 days, all fish were examined and weighed. Three fishes of each group were euthanized. Liver and kidney explants were treated for anatomopathology analysis.
# Koi Herpes virus (KHV) [4] = test: Inhibition of Koi Herpes Virus infections in cell culture (plaque / cytopathic effect, crystal violet); assay type: cell-based, Koi herpesvirus (KHV); details: for IC50: Cyprinid herpesvirus 3, 120 h; for concentration resulting in complete inhibition of KHV replication: KHV in CCB cells, five days post infection; for effect on KHV replication (in words): in vitro
# Description: KHV inhibitory activity can be readily detected using the assays described herein, as well as other assays known to those of ordinary skill in the art. In general, carp cells are infected with KHV and are incubated with the compounds to be tested for inhibitory activity. A more detailed description is provided in the examples.
# (§1) Compounds for testing KHV-antiviral activity were dissolved in dimethylsulfoxide (DMSO) at a concentration of 20 mg/ml, then filtrated through a 0.45 μm filter to obtain a sterile solution. Common carp brain (CCB) cells were grown in minimum essential medium (MEM, commercially available from Invitrogen) containing 4.5 g/l glucose (D-glucose monohydrate, Merck) and 10% fetal calf serum (FCS, commercially available from BioWhittaker). Cells were incubated at 25° C. in a humid atmosphere containing 5% CO2. Confluent cell monolayers grown in 24 wells cluster dishes were inoculated with 200 plaque forming units (PFU) of KHV in 0.2 ml of serum free Dulbecco's Modified Eagle Medium (DMEM, commercially available from Invitrogen). […] Five days post infection (pi), viral plaques or virus induced cytopathic effects were observed by staining cells with a crystal violet (Merck) solution.
# as §1, with “Alternatively, PMEDAP was” for “Compounds for testing KHV-antiviral activity were”, “DMEM and propyleneglycol (33.3%)/ethanol(8.3%) (PE buffer) respectively,” for “dimethylsulfoxide (DMSO)”, “10 mg/ml.” for “20 mg/ml, then filtrated through a 0.45 μm filter to obtain a sterile solution.”, “modified eagle medium” for “Modified Eagle Medium”
# KHV infections = details: Ilouze et al., FEBS Letters (2006) 580(18) 4473-4478; cited from earlier work
# [5] = 20 mg/kg intramuscular, 10 consecutive days (PMEDAP 20)
# [6] = 50 mg/kg intramuscular, 10 consecutive days (PMEDAP 50)
# [7] = KHV (200 PFU) in CCB cells, compounds dissolved in DMSO, read five days post infection, read-out: IC50
structure (smiles),measurement,setting,value
"Nc1nc(N)c2ncn(CCOCP(=O)(O)O)c2n1 [PMEDAP, 9-(2-phosphonylmethoxyethyl)-2,6-diaminopurine]",Clinical signs,koi carps [1]; [5],None
same,Survival (%),koi carps [1]; [5],100%
same,Microscopic lesions,koi carps [1]; [5],None
same,Mean final weight,"koi carps [1]; 20 mg/kg intramuscular, 10 consecutive days (PMEDAP 20), mean initial weight 23.1 g",21.3 g
same,Clinical signs,koi carps [1]; [6],None
same,Survival (%),koi carps [1]; [6],100%
same,Microscopic lesions,koi carps [1]; [6],None
same,Mean final weight,"koi carps [1]; 50 mg/kg intramuscular, 10 consecutive days (PMEDAP 50), mean initial weight 16.3 g",15.3 g
same,inhibition of virus induced cytopathic effect,Koi Herpes virus (KHV) [2],complete inhibition
same,Clinical signs,koi carps [3],None
same,Survival (%),koi carps [3],100%
same,"mean weight of fishes, PMEDAP versus DMEM",koi carps [3],statistically similar
same,toxic effect (in words),koi carps [3],did not reveal any toxic effect
same,Microscopic lesions,koi carps [3]; liver and kidney explants,None
same,Mean final weight,koi carps [3]; mean initial weight 66.1 g,71.5 g
same,IC50,Koi Herpes virus (KHV) [4]; [7],4.8 µg/mL
same,concentration resulting in complete inhibition of KHV replication,Koi Herpes virus (KHV) [4],12.5 µg/mL
same,effect on KHV replication (in words),Koi Herpes virus (KHV) [4],highly active
"O=c1[nH]c(=O)n([C@H]2C[C@H](O)[C@@H](CO)O2)cc1/C=C/Br [BVDU (brivudin), brivudin]",IC50,Koi Herpes virus (KHV) [4],100 µg/mL
same,effect on KHV replication (in words),Koi Herpes virus (KHV) [4],no effect or a very limited effect
"O=C(O)P(=O)(O)O [PFA (foscarnet), foscarnet]",IC50,Koi Herpes virus (KHV) [4]; [7],> 100 µg/mL
"Nc1ccn(C[C@@H](CO)OCP(=O)(O)O)c(=O)n1 [HPMPC, cidofovir]",IC50,Koi Herpes virus (KHV) [4]; [7],50 µg/mL
same,effect on KHV replication (in words),Koi Herpes virus (KHV) [4],no effect or a very limited effect
"Nc1ncnc2c1ncn2CCOCP(=O)(O)O [PMEA (adefovir), 9-[2-phosphonylmethoxyethyl]adenine]",IC50,Koi Herpes virus (KHV) [4]; [7],6.5 µg/mL
same,concentration resulting in complete inhibition of KHV replication,Koi Herpes virus (KHV) [4],25 µg/mL
"Nc1nc(O)c2ncn(COC(CO)CO)c2n1 [GCV (ganciclovir), ganciclovir]",IC50,Koi Herpes virus (KHV) [4]; [7],100 µg/mL
same,effect on KHV replication (in words),Koi Herpes virus (KHV) [4],no effect or a very limited effect
Nc1nc2c(ncn2COCCO)c(=O)[nH]1 [acyclovir],activity against KHV infections (in words),KHV infections,inactive
same,effect on KHV replication (in words),Koi Herpes virus (KHV) [4],no effect or a very limited effect
